According to US9844572B2, “Promotion of neuronal integration in neural stem cell grafts” (Life & Brain GmbH, priority 2009, dated 2017):
Entries after “also recorded” stand apart in the source; their conditions may differ.

Experiments:
[1] = system: immature neurons in the presence of neural stem/progenitor cells (hES-NSC70+N30); assay: Boyden chamber assay of neural stem/progenitor cells mixed with immature neurons (hES-NSC70+N30) pre-incubated with inhibitor; format: cell-based, human; conditions: hES-NSC70+N30 pre-incubated for 30 minutes with agent
Method: Bars represent the percentage of migrated neurons after 20 hours in culture towards medium or a chemoattractant either with or without VEGF R2-AB or endostatin treatment. Cell numbers were normalised to the number of plated neurons (*P≦0.02; statistical significance was determined in relation to the control).
One way to study migration at the cellular level is to use microchemotaxis chambers (Boyden chambers; see FIG. 1A) (Richards & McCullough, 1984). A membrane separates the upper and the lower part of the chamber. Cells are plated on the PO/LN coated membrane that separates the upper and the lower well. Chemoattractants are introduced in the well of the lower compartment e.g., by soaking agarose beads (affi-gel blue gel) with the corresponding chemoattractants. 100 μl of the pre-soaked beads are introduced in the lower well and covered with medium before placing the upper well on top. The chemoattractant will be released over time, thus creating a chemoattractive gradient. […]
In this study agarose beads were soaked with either 30 ng/ml EGF, BDNF, SDF1, SCF, PDFG-AA, FGF2 or VEGF (FIG. 1B). […] Cells that had not migrated and were still on the upper side of the membrane were scraped off, while the migrated cells on the lower side were DAPI stained and counted. […]

[2] = system: lt-hESNSC mixed with immature neurons on hippocampal rat slice cultures; assay: Transplantation onto rat hippocampal slice cultures (migration of human neurons from mixed grafts); format: cell-based
Method: Using a vibroslicer, 400 μm horizontal sections were generated from the hippocampus of 9-10 day-old Wistar rats. The slices included the dentate gyrus and the entorhinal and temporal cortex (Scheffler et al., 2003; Opitz et al., 2007). They were transferred onto a polyester membrane and cultivated at 35° C., 5% CO2 and saturated air humidity in an initial culture medium containing 25% normal horse serum, which was gradually replaced after 3-5 days by chemically defined, serum-free culture medium based on DMEM/F12, N2 supplement and B27 supplement. Medium was changed every other day and 5-7 days after explantation a cell suspension of 50 000 cells in a 1 μl volume was spotted onto the entorhinal cortex of the slice using an injection device.
For immunohistochemical analysis of slice cultures (FIG. 4), cultures were fixed in 4% paraformaldehyde for 4 hours and subsequently washed several times with PBS. Slices were permeabilized/blocked with 0.1% Triton X-100+10% FCS for 6 hours at 25° C. Incubation with primary antibody was for 16 hours at room temperature, followed by washing steps with PBS for 5 hours. Incubation with the secondary antibodies was for 2 hours at room temperature.
To further investigate whether endostatin can also interfere with the chemoattractive effect of neural stem/progenitor cells on immature neurons in a context closer to an in vivo situation, hippocampal rat slice culture experiments were performed. HES-NSC70+N30 were pre-incubated for 30 minutes in 30 μl Cytocon™-Buffer II with either 2 μl stock solution endostatin (n=9) or with 2 μl of the solvent of endostatin (citric-phosphate buffer) as control (n=9), and then deposited on the entorhinal cortex of hippocampal slice cultures. Cultures of pure human neurons were transplanted as positive control (n=9). The slices were further cultured for 18 days after deposition of the cells. 1 μl/ml endostatin stock solution was continuously applied every day to the slice media.
To further investigate whether BIBF1120 can also interfere with the chemoattractive effect of neural stem/progenitor cells on immature neurons, hippocampal rat slice culture experiments were performed. Lt-hESNSC mixed with purified DCX-EGFP positive neurons (30.0000 lt-hESNSC mixed with 100.000 purified neurons per μl) were pre-incubated for 30 min. in Cytocon™-Buffer II with or without 2 μg/ml BIBF1120, respectively, and then deposited on the entorhinal cortex (EC) of hippocampal slice cultures. The slices were further cultured for 7 days after deposition of the cells. 2 μg/ml BIBF1120 was continuously applied every day to the slice media.

[3] = system: primary tumor; conditions: cited from earlier work
[4] = system: human Neurons; assay: Transwell (Boyden chamber) migration assay of human neurons towards chemoattractant-soaked agarose beads; format: cell-based; conditions: agarose beads soaked with 30 ng/ml factor in lower well; 20 hours
Method: FIG. 1B Migration of human Neurons monitored after 20 hours in culture towards either medium or plated neural stem cells derived from human embryonic stem cells (lt-hESNSC) or agarose beads pre-soaked with BDNF, EGF, SDF1, SCF, PDGF, FGF2 or VEGF. Bars represent percentage of migrated neurons (*P<0.03; Statistical significance was determined in relation to medium control).
One way to study migration at the cellular level is to use microchemotaxis chambers (Boyden chambers; see FIG. 1A) (Richards & McCullough, 1984). A membrane separates the upper and the lower part of the chamber. Cells are plated on the PO/LN coated membrane that separates the upper and the lower well. Chemoattractants are introduced in the well of the lower compartment e.g., by soaking agarose beads (affi-gel blue gel) with the corresponding chemoattractants. 100 μl of the pre-soaked beads are introduced in the lower well and covered with medium before placing the upper well on top. The chemoattractant will be released over time, thus creating a chemoattractive gradient. If the agent acts as a chemoattractant, the attached cells will migrate through the filter towards the gradient of the attracting factor. Small pore sizes (8 μm) require active migration rather than passive falling of the cells through the filter.
In this study agarose beads were soaked with either 30 ng/ml EGF, BDNF, SDF1, SCF, PDFG-AA, FGF2 or VEGF (FIG. 1B). The chemoattractive effect of NSCs on neurons was studied by plating lt-hESNSC directly in the PO/LN coated lower well before placing the upper well with the attached neurons on top. After a culture period of 20 hours, chambers were fixed with 4% PFA for 10 min. Cells that had not migrated and were still on the upper side of the membrane were scraped off, while the migrated cells on the lower side were DAPI stained and counted.

[5] = system: human Neurons; assay: Dunn chamber migration assay (chemotaxis of immature neurons); format: cell-based; conditions: factor 200 ng/ml in outer well only; 6 h recording
Method: FIG. 7A Dunn chamber migration assay. Schematic representation of a direct-viewing Dunn chemotaxis chamber showing the position of the inner well, the bridge, the outer well and the overlying coverslip (a) (Zicha et al., 1991 1998, Zhang et al., 2003). Adopted from Hawksley. Calculation of the forward migration index (FMI) during a 6 h recording period. FMI values can be either positive or negative, depending on the direction in which the cell is migrating (b).
FIG. 7B Directionality analysis of cell movement using scatter plots of cell displacement (c-i). The diagrams orientate such that the position of the outer well of the chamber are vertical (y direction). Each point represents the final position of a cell at the end of the recording period of 6-h; the starting point of migration is fixed at the intersection of the two axes. As control migration of human neurons was monitored in medium only (c). For assessing chemokinesis, equal amounts of FGF2 (d) or VEGF (e) were added to both the outer and the inner wells of the chamber. Chemotaxis was tested by placing FGF2 (f) or VEGF (g) in the outer well only. Migration of human neurons treated with BFBF1120 was monitored towards a FGF2 (h) and VEGF (i) gradient.
Chemotaxis of immature neurons was directly viewed and recorded in stable concentration gradients of FGF2 (200 ng/ml) or VEGF (200 ng/ml), respectively, with or without the addition of BIBF1120 ([…]) using a Dunn chemotaxis chamber (Allen et al., 1998 1998, Zhang et al., 2003). This device is made from a Helber bacteria counting chamber by grinding a circular well in the central platform to leave a 1 mm-wide annular bridge between the inner and the outer well. Chemoattractants added to the outer well of the chamber will diffuse across the bridge to the inner well and form a linear steady gradient within ˜30 min after loading the chamber (Zicha et al., 1991; Webb et al., 1996). To study chemotaxis, the outer well of the Dunn chamber can be filled with medium containing a chemoattractant, whereas the concentric inner well is filled with medium only. Coverslips carrying the cultured cells are inverted and placed onto the chamber. Cell locomotion is recorded through the annular bridge between the concentric inner and outer well. For assessing chemokinesis, the outer and inner wells are filled with equal concentrations of the chemoattractant. A period of 6 h was chosen to assess cell migration.
To determine the efficiency of forward migration during the 6 h recording period, the FMI was calculated as the ratio of forward progress to the total path length (Foxman et al., 1999; Zhang et al.).

[6] = molecular target: KDR (Homo sapiens, UniProt P35968); conditions: cited from earlier work
KDR, sequence (P35968 20-1356): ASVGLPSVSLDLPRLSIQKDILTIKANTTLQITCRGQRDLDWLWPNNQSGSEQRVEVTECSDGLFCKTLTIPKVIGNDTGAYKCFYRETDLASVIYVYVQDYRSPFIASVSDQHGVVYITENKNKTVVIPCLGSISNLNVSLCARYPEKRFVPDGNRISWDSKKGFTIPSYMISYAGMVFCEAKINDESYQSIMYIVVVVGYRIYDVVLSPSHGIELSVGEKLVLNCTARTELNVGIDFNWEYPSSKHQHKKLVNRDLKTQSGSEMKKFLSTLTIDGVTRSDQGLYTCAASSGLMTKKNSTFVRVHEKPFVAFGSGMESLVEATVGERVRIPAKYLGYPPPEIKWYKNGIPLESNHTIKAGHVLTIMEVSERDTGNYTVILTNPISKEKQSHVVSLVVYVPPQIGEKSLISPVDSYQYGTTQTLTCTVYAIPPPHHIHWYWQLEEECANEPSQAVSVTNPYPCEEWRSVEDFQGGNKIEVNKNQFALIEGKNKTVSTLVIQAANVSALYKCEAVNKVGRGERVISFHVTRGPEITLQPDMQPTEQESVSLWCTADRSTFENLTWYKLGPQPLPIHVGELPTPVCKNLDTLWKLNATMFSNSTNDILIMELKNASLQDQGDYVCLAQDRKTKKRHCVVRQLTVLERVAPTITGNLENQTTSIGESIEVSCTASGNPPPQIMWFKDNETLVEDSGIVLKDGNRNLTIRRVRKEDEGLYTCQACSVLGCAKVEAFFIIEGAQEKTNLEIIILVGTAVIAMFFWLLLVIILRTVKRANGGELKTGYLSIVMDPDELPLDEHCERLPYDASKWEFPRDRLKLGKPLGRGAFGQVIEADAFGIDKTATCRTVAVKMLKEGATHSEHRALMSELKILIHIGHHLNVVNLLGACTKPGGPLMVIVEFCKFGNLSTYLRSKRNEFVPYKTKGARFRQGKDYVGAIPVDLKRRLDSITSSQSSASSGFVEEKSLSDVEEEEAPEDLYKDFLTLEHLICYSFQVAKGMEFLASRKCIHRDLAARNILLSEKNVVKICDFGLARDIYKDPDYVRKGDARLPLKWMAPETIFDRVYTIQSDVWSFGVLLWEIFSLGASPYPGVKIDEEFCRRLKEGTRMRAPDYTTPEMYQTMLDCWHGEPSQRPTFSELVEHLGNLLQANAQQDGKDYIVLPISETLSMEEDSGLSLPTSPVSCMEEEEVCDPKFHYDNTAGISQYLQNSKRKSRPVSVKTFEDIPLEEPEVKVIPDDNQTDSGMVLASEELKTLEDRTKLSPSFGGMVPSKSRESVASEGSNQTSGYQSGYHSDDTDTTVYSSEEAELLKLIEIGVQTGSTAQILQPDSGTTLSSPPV

[7] = system: VEGF-induced angiogenesis; conditions: rabbit corneal model; cited from earlier work

Q: With endostatin as the substance, how does the “migration of immature neurons towards PDGF gradient” value ([1]; agarose beads releasing PDGF) read?
A: additionally enhanced the effect

Q: What about the “migration of immature neurons towards media” value ([1]; plain agarose beads, 20 hours, vs solvent control) of the same substance?
A: significantly enhanced migration; also recorded: most prominent enhancement of migration

Q: And the “migration of single human neurons away from the transplantation core (horizontal)” value ([2]; hES-NSC70+N30, endostatin pre-incubation and daily application, day 18)?
A: up to 800 μm

Q: What about the “migration horizontally over the slice compared to control population” value ([2]; hES-NSC70+N30, endostatin treated, 18 days after transplantation) of the same substance?
A: enhanced migration and integration capacity

Q: What about the “depth reached along the z-axis” value ([2]; hES-NSC70+N30, endostatin treated, day 18) of the same substance?
A: 350 μm

Q: What about the “toxicity during continued treatment” value ([3]; in vivo) of the same substance?
A: no toxicity

Q: And the “tumor regression in size” value ([3]; recombinant E. coli-derived endostatin added at a site remote from the primary tumor)?
A: over 150 fold

Q: And the “tumor size after regression” value ([3]; recombinant E. coli-derived endostatin)?
A: less than 1 mm^3

Q: For “SDF1: soluble factor tested as neuronal chemoattractant”, which “chemoattractive effect on neurons in the chamber migration assay” value (from here on “chemoattractive effect on neurons”) [4] is on record?
A: neuronal chemoattractants

Q: Which “chemoattractive effect on neurons” value [4] does the source give for “FGF2: fibroblast growth factor 2, an 18 kDa protein” here?
A: neuronal chemoattractants; also recorded: significant chemoattractive effect

Q: What about the “chemotaxis of human neurons towards gradient of the factor” value [5] of the same substance?
A: neuronal chemoattractants; also recorded: clear directionality of migration

Q: Which “chemoattractive effect on neurons” value [4] does the source give for “PDGF: platelet-derived growth factor, tested as neuronal chemoattractant” here?
A: neuronal chemoattractants; also recorded: significant chemoattractive effect

Q: For ATWLPPR, which “VEGF binding to cell-displayed KDR” value [6] is on record?
A: abolish

Q: What about the VEGF-induced angiogenesis [7] of the same substance?
A: abolished

Q: Which results are given for VEGF?
A: chemoattractive effect on neurons in the chamber migration assay [4]: neuronal chemoattractants; also recorded: significant chemoattractive effect; chemotaxis of human neurons towards gradient of the factor [5]: neuronal chemoattractants; also recorded: clear directionality of migration
